# Source: patent US5604213A, “17-substituted steroids useful in cancer treatment” (priority 1992, dated 1997)
# T1: C17-C20 lyase (Homo sapiens, UniProt P05093)
# T1 construct: Human testes were obtained from previously untreated patients undergoing orchidectomy for prostatic cancer; from tissue; host or cells: human testes, microsomes
# T1 sequence (P05093 1-508): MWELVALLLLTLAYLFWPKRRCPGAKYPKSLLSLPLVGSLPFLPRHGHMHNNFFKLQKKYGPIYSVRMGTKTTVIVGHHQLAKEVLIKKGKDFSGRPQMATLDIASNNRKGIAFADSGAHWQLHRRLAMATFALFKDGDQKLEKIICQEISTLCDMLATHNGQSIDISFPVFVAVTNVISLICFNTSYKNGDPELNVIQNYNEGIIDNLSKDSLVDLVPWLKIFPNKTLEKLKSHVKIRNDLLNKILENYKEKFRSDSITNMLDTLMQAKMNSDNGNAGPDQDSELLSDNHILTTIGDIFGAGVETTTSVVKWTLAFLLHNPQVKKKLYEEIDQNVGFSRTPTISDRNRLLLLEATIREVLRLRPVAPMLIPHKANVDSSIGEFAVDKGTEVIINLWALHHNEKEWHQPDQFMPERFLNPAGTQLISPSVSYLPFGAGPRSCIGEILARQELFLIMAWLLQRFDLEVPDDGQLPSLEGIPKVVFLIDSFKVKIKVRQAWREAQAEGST
# T2: 17α-hydroxylase (Homo sapiens, UniProt P05093)
# T2 construct: Human testes were obtained from previously untreated patients undergoing orchidectomy for prostatic cancer; from tissue; host or cells: human testes, microsomes
# T2 sequence (P05093 1-508): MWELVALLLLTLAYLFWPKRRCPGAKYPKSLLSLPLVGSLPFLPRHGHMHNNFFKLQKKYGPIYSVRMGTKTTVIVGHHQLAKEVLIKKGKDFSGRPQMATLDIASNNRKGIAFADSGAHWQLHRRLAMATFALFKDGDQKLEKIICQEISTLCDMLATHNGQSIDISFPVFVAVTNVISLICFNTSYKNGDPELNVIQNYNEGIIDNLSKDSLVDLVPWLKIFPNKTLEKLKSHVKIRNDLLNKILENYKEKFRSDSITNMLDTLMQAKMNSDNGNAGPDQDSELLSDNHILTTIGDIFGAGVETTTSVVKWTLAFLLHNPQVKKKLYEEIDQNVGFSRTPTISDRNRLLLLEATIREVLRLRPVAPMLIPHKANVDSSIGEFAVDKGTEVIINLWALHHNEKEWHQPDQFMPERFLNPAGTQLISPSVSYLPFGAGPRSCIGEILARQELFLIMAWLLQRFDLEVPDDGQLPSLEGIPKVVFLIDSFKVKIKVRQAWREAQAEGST
# T3: aromatase (Homo sapiens, UniProt P11511)
# T3 construct: using human placental microsomes; from tissue; host or cells: human placenta, microsomes
# T3 sequence (P11511 1-503): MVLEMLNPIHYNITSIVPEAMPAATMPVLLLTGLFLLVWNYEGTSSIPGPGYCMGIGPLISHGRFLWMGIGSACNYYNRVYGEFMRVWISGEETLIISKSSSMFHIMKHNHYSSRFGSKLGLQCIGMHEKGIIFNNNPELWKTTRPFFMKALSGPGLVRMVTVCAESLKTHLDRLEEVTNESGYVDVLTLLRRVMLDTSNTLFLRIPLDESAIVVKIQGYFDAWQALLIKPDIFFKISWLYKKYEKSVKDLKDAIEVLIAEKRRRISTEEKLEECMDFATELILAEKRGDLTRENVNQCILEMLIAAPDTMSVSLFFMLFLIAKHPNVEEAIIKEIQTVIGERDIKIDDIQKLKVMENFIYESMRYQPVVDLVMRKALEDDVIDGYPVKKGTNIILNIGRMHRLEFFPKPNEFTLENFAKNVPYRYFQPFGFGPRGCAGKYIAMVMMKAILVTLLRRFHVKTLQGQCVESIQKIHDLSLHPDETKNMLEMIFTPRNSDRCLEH
# How the values were obtained:
# [1] = target: T1, C17-C20 lyase; experiment: Determination of C17-C20 lyase (human testicular microsomes, 3H-17α-hydroxyprogesterone); format: biochemical; details: for concentration required to achieve 50% inhibition of lyase, versus the 3-pyridyl (in words): compared with 3-pyridyl
# Procedure: The testes were decapsulated and stored in liquid nitrogen until use. […] The material was then thawed, finely chopped, and homogenised in 0.25M sucrose (5 ml/g wet weight) using a Potter homogeniser. The homogenate was centrifuged at 12000 g for 30 min, and then the microsomes were pelleted by spinning the supernatant at 100,000 g for 1 hr. The pellet was washed by being resuspended in 0.25M sucrose and repelleted. The microsomal pellet was then resuspended in 50 mM sodium phosphate pH 7.4/glycerol (3/1 v/v) and stored in aliquots in liquid nitrogen.
# (§2) The basic assay mixture was EDTA (0.2 mM), dithiothreitol (DTT; 0.1 mM), NADPH (0.25 mM), glucose 6-phosphate dehydrogenase (G6PDH; 6.25 μg/ml), MgCl2 (1 mM), glucose 6-phosphate (G6P; 10 mM) and the substrate, 3H-progesterone (3 μM) in sodium phosphate (50 mm), pH 7.4. The compounds under test were dissolved in 50% DMSO and the final concentrations of ethanol and DMSO were 1% each. The assay reaction was carded out for 1 hour and was terminated by the addition of 2 vols. of methanol-acetonitrile (2:1) containing approx. 100 μM unlabelled progesterone, 17α-hydroxyprogesterone, androstenedione, testosterone, and 16α-hydroxyprogesterone.
# The HPLC separation used for the lyase involved a mini-re-column "Uptight Guard Column" packed with PELL-ODS (pellicular octadecyl silica) and a 10 cm. main column "Apex C18" column packed with 5μ APEX-CAT silica.
# The eluant was 38:12:50 methanol:acetonitrile:water flowing at 1 ml/min. The effluent was mixed 1:1 with Ecoscint A containing 5% methanol and 5% acetonitrile and the radioactivity was measured directly by a Berthold LB506C radiochemical detector. The lyase activity was measured as the production of androstenedione and testosterone.
# The enzyme activity was measured in the presence of at least 4 concentrations of each compound.
# [2] = target: T2, 17α-hydroxylase; experiment: Determination of 17α-hydroxylase (human testicular microsomes, 3H-progesterone); format: biochemical; details: for concentration required to achieve 50% inhibition of hydroxylase, versus the 3-pyridyl (in words): compared with 3-pyridyl
# Procedure: Human testes were obtained from previously untreated patients undergoing orchidectomy for prostatic cancer. The testes were decapsulated and stored in liquid nitrogen until use. A microsomal preparation was prepared essentially as described by S. E. Barrie et al., J. Steroid Biochem. 6, 1191-5, (1989). The material was then thawed, finely chopped, and homogenised in 0.25M sucrose (5 ml/g wet weight) using a Potter homogeniser. The homogenate was centrifuged at 12000 g for 30 min, and then the microsomes were pelleted by spinning the supernatant at 100,000 g for 1 hr. The pellet was washed by being resuspended in 0.25M sucrose and repelleted. The microsomal pellet was then resuspended in 50 mM sodium phosphate pH 7.4/glycerol (3/1 v/v) and stored in aliquots in liquid nitrogen.
# as §2
# The separation of the steroids by HPLC was carried out using an "Uptight" guard column packed with 40-63 μm Nucleosil C18 and a 10 cm main column packed with 5 μm Nucleosil C18 and 60% methanol as eluant. The radioactivity in the peaks of interest was monitored on-line by mixing the HPLC effluent 1:1 with Ecoscint A (National Diagnostics) scintillation fluid, containing 25% acetonitrile, and passing the mixture through a Berthold LB506C radiochemical monitor. The hydroxylase activity was measured as the production of 17α-hydroxyprogesterone, androstenedione and testosterone.
# The enzyme activity was measured in the presence of at least 4 concentrations of each compound. The data were for the 4-pyridyl and 2-picolyl compounds of Table 1 fitted by linear regression to the Dixon equation (M. Dixon, E.C. Webb, Enzymes, 2nd ed., Academic Press, New York, 1964). Data for all the other compounds were fitted by non-linear regression to the median effect equation of Chou, J. Theoret.
# [3] = system: Male HWT mice; experiment: In vivo organ weight test in mice; details: for Mean weight ± standard error, Adrenals / Mean weight ± standard error, Kidneys / Mean weight ± standard error, Seminal Vesicles / Mean weight ± standard error, Prostate / Mean weight ± standard error, Testes: 2 weeks
# Procedure: (§1) Male HWT mice, 12 weeks old, were treated daily for 2 weeks, with 5 animals per treatment group. The test compounds were the compound of Examples 1 and 4 (as representative of compounds of the invention having the pregenolone-like and progesterone-like skeletons respectively). Ketoconazole was also tested at three different doses. The test compounds were made up in 5% benzyl alcohol, 95% safflower oil, and were given i.p. In addition to an untreated control group of animals, there was also a solvent control group which received the same volume of liquid as the test group (5 ml/kg) but no test compound. All animals were sacrificed 24 hours after the last injection. Blood was collected by cardiac puncture into heparinized tubes, and the plasma used for RIA (radio immunoassay) of testosterone and luteinising hormone. The following organs were removed and weighed: adrenals, prostate, seminal vesicles, testes, kidneys. There was no significant body weight loss in any group of mice during the experiments.
# [4] = set-up: species or system mice; details: mouse, in vivo; for post mortem examination: appearance of organs / post mortem examination: deposits: ip
# Procedure: as §1
# In Ketoconazole-treated animals, adhesions were found in 2/5,2/5,4/5 of the low/middle/top dose groups. […] The livers were brown in the middle/top dose groups.
# [5] = system: luteinising hormone; experiment: In vivo endocrine test in mice: plasma luteinising hormone (RIA); details: 2 weeks
# Procedure: as §1
# [6] = target: T3, aromatase; format: biochemical; details: human placental microsomes
# Procedure: Aromatase activity was determined by the method of A. B. Foster et al., J. Med. Chem. 26, 50-54 (1983), using human placental microsomes.
# [7] = system: testosterone; experiment: In vivo endocrine test in mice: plasma testosterone (RIA); details: 2 weeks
# Procedure: Male HWT mice, 12 weeks old, were treated daily for 2 weeks, with 5 animals per treatment group. […] The test compounds were made up in 5% benzyl alcohol, 95% safflower oil, and were given i.p. In addition to an untreated control group of animals, there was also a solvent control group which received the same volume of liquid as the test group (5 ml/kg) but no test compound. All animals were sacrificed 24 hours after the last injection. Blood was collected by cardiac puncture into heparinized tubes, and the plasma used for RIA (radio immunoassay) of testosterone and luteinising hormone.
# [8] = substrate: C[C@]12CCC(=O)C=C1CC[C@@H]1[C@@H]2CC[C@]2(C)C(=O)CC[C@@H]12; experiment: cells, lysate or membranes named; details: other: human placental microsomes used
molecule,measurement,setting,value
CC12CCC(Oc3c(F)c(F)c(C(F)(F)F)c(F)c3F)CC1=CCC1C2CCC2(C)C(c3cccnc3)=CCC12 (stereo not shown),inhibition of lyase (in words),[1],very poor inhibitor
same,inhibition of hydroxylase (in words),[2],very poor inhibitor
"CC(=O)O[C@H]1CC[C@@]2(C)C(=CC[C@@H]3[C@@H]2CC[C@]2(C)C(c4cccnc4)=CC[C@@H]32)C1 [Ex. 1, 3β-Acetoxy-17-(3-pyridyl)androsta-5,16-diene]","Mean weight ± standard error, Adrenals",[3]; 0.02 mmol/kg/day i.p.,4.3 ± 0.2 mg
same,"Mean weight ± standard error, Kidneys",[3]; 0.02 mmol/kg/day i.p.,604 ± 24 mg
same,"Mean weight ± standard error, Adrenals",[3]; 0.1 mmol/kg/day i.p.,4.0 ± 0.2 mg
same,"Mean weight ± standard error, Kidneys",[3]; 0.1 mmol/kg/day i.p.,500 ± 8 mg
same,"Mean weight ± standard error, Adrenals",[3]; 0.5 mmol/kg/day i.p.,4.7 ± 0.2 mg
same,"Mean weight ± standard error, Kidneys",[3]; 0.5 mmol/kg/day i.p.,449 ± 12 mg
same,post mortem examination: appearance of organs,[4],all organs looked normal
same,post mortem examination: deposits,[4],oil/white deposits i.p.
same,LH (Mean ± standard error),[5]; 0.02 mmol/kg/day i.p.,3.4 ± 0.5 ng/mL
"C[C@]12CC[C@H](O)CC1=CC[C@@H]1[C@@H]2CC[C@]2(C)C(c3cccnc3)=CC[C@@H]12 [Ex. 2, 17-(3-Pyridyl)androsta-5,16-dien-3β-ol]",IC50,[6],> 20000 nM
"C[C@]12CCC(=O)C=C1CC[C@@H]1[C@@H]2CC[C@]2(C)C(c3cccnc3)=CC[C@@H]12 [Ex. 4, 17-(3-Pyridyl)androsta-4,16-dien-3-one]","Mean weight ± standard error, Adrenals",[3]; 0.02 mmol/kg/day i.p.,4.7 ± 0.2 mg
same,"Mean weight ± standard error, Seminal Vesicles",[3]; 0.02 mmol/kg/day i.p.,108 ± 4 mg
same,"Mean weight ± standard error, Adrenals",[3]; 0.1 mmol/kg/day i.p.,4.6 ± 0.4 mg
same,"Mean weight ± standard error, Seminal Vesicles",[3]; 0.1 mmol/kg/day i.p.,61 ± 9 mg
same,"Mean weight ± standard error, Adrenals",[3]; 0.5 mmol/kg/day i.p.,4.9 ± 0.1 mg
same,"Mean weight ± standard error, Seminal Vesicles",[3]; 0.5 mmol/kg/day i.p.,25 ± 1 mg
same,Testosterone (Mean ± standard error),[7]; 0.02 mmol/kg/day i.p.,4.5 ± 0.3 nM
same,Testosterone (Mean ± standard error),[7]; 0.1 mmol/kg/day i.p.,3.5 ± 1.0 nM
same,Testosterone (Mean ± standard error),[7]; 0.5 mmol/kg/day i.p.,0.4 ± 0.1 nM
same,post mortem examination: appearance of organs,[4],all organs looked normal
same,post mortem examination: deposits,[4],white deposits throughout the abdomen
"C[C@]12CCC(=O)C[C@@H]1CC[C@@H]1[C@@H]2CC[C@]2(C)C(c3cccnc3)=CC[C@@H]12 [Ex. 9, 17-(3-Pyridyl)-5α-androst-16-en-3-one]",IC50,"[2]; approx. 4 nM enzyme, A and B ring variations, read-out: IC50 Hydroxylase (Table 2(a))",4.7 nM
C[C@]12CC[C@H](O)CC1=CC[C@@H]1[C@@H]2CC[C@]2(C)C(c3ccccn3)=CC[C@@H]12 [Example 2-Pyridyl],"concentration required to achieve 50% inhibition of lyase, versus the 3-pyridyl (in words)",[1],far greater
same,"concentration required to achieve 50% inhibition of hydroxylase, versus the 3-pyridyl (in words)",[2],far greater
C[C@]12CC[C@H](O)CC1=CC[C@@H]1[C@@H]2CC[C@]2(C)C(Cc3ccccn3)=CC[C@@H]12 [Example 2-picolyl],"concentration required to achieve 50% inhibition of lyase, versus the 3-pyridyl (in words)",[1],far greater
same,"concentration required to achieve 50% inhibition of hydroxylase, versus the 3-pyridyl (in words)",[2],far greater
C[C@]12CC[C@H](O)CC1=CC[C@@H]1[C@@H]2CC[C@]2(C)C(c3ccncc3)=CC[C@@H]12 [Example 4-pyridyl],"concentration required to achieve 50% inhibition of lyase, versus the 3-pyridyl (in words)",[1],far greater
same,"concentration required to achieve 50% inhibition of hydroxylase, versus the 3-pyridyl (in words)",[2],far greater
CC(=O)N1CCN(c2ccc(OCC3COC(Cn4ccnc4)(c4ccc(Cl)cc4Cl)O3)cc2)CC1 (stereo not shown) [Ketoconazole],"Mean weight ± standard error, Adrenals",[3]; 0.01 mmol/kg/day i.p.,4.8 ± 0.2 mg
same,"Mean weight ± standard error, Kidneys",[3]; 0.01 mmol/kg/day i.p.,637 ± 22 mg
same,"Mean weight ± standard error, Prostate",[3]; 0.01 mmol/kg/day i.p.,9.1 ± 0.8 mg
same,"Mean weight ± standard error, Seminal Vesicles",[3]; 0.01 mmol/kg/day i.p.,235 ± 18 mg
same,"Mean weight ± standard error, Testes",[3]; 0.01 mmol/kg/day i.p.,141 ± 5 mg
same,"Mean weight ± standard error, Adrenals",[3]; 0.225 mmol/kg/day i.p.,6.1 ± 0.3 mg
same,"Mean weight ± standard error, Kidneys",[3]; 0.225 mmol/kg/day i.p.,574 ± 23 mg
same,"Mean weight ± standard error, Prostate",[3]; 0.225 mmol/kg/day i.p.,10.8 mg
same,"Mean weight ± standard error, Seminal Vesicles",[3]; 0.225 mmol/kg/day i.p.,171 ± 5 mg
same,"Mean weight ± standard error, Testes",[3]; 0.225 mmol/kg/day i.p.,127 ± 7 mg
same,"Mean weight ± standard error, Adrenals",[3]; 0.5 mmol/kg/day i.p.,6.9 ± 0.3 mg
same,"Mean weight ± standard error, Kidneys",[3]; 0.5 mmol/kg/day i.p.,710 ± 30 mg
same,"Mean weight ± standard error, Prostate",[3]; 0.5 mmol/kg/day i.p.,9.3 ± 0.9 mg
same,"Mean weight ± standard error, Seminal Vesicles",[3]; 0.5 mmol/kg/day i.p.,179 ± 20 mg
same,"Mean weight ± standard error, Testes",[3]; 0.5 mmol/kg/day i.p.,133 ± 6 mg
same,effect on adrenal weight,[3]; two highest doses,increase in adrenal weight
same,appearance of livers,[4],brown
same,"gut and peritoneal wall, appearance",[4],seemed to be stuck to the seminal vesicles
same,LH (Mean ± standard error),[5]; 0.1 mmol/kg/day i.p.,0.39 ± 0.14 ng/mL
same,LH (Mean ± standard error),[5]; 0.225 mmol/kg/day i.p.,0.75 ± 0.02 ng/mL
same,LH (Mean ± standard error),[5]; 0.5 mmol/kg/day i.p.,0.76 ± 0.03 ng/mL
aromatase (Homo sapiens) (protein) MVLEMLNPIHYNITSIVPEAMPAATMPVLLLTGLFLLVWNYEGTSSIPGPGYCMGIGPLISHGRFLWMGIGSACNYYNRVYGEFMRVWISGEETLIISKSSSMFHIMKHNHYSSRFGSKLGLQCIGMHEKGIIFNNNPELWKTTRPFFMKALSGPGLVRMVTVCAESLKTHLDRLEEVTNESGYVDVLTLLRRVMLDTSNTLFLRIPLDESAIVVKIQGYFDAWQALLIKPDIFFKISWLYKKYEKSVKDLKDAIEVLIAEKRRRISTEEKLEECMDFATELILAEKRGDLTRENVNQCILEMLIAAPDTMSVSLFFMLFLIAKHPNVEEAIIKEIQTVIGERDIKIDDIQKLKVMENFIYESMRYQPVVDLVMRKALEDDVIDGYPVKKGTNIILNIGRMHRLEFFPKPNEFTLENFAKNVPYRYFQPFGFGPRGCAGKYIAMVMMKAILVTLLRRFHVKTLQGQCVESIQKIHDLSLHPDETKNMLEMIFTPRNSDRCLEH,Km,[8],0.039 µM
